Test results reported in PubChem BioAssay AID179 (DTP/NCI, 2004).
Where “and” joins values, the source holds several entries; their conditions need not be identical. Identical values can stand only once. Calls of active or inactive are those of the source.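 Rule for the calls: active = compounds giving half or more protection of infected cells from virus-caused growth loss, again on retest; inactive = the rest.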 Where a SMILES comes first, the peptide text is derived from it.

System: CEM cells HIV-1 protection, formazan growth assay
Assay: NCI AIDS Antiviral Assay
Conditions: for IC50: measured here: growth of uninfected CEM cells
In short: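 Soluble formazan readout of cell growth; CEM cells ± HIV-1; 5 drug concs. ≥50% protection → retest; ≥50% again = moderately active; reproducible 100% = confirmed active.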

| SMILES | EC50 [µM] | IC50 | outcome |
| --- | --- | --- | --- |
| NCCN.O=N[O-].O=N[O-].O=N[O-].O=N[O-].[Co+3].[K+] | > 724 | 219 µM |  |
| C[C@]12CC[C@H](O)CC1=CC[C@@H]1C2CC[C@@]2(C)C1CC[C@@H]2c1nc(-c2ccccc2)cs1 (stereo partly drawn) | > 15.5 | > 15.5 µM |  |
| COC(OC)C1OCC(n2cc(F)c(=O)[nH]c2=O)C1O (stereo not drawn) | > 200 | > 200 µM |  |
| Cc1ccc(S(=O)C[C@](NC(=O)OCc2ccccc2)(Sc2ccccc2)C(F)F)cc1 (stereo partly drawn) | > 200 | 10.7 µM |  |
| CC1OC(OC2C(O)C(O)C(N=C(N)N)C(O)C2N=C(N)N)C(OC2OC(CO)C(O)C(O)C2N(C)N=O)C1(O)C=O (stereo not drawn) |  |  | inactive |
| CCOC(=O)C(NC(=O)c1ccc(N=NN(C)C)cc1)C(C)C (stereo not drawn) | > 407 | 309 µM |  |
| Cn1c(=O)c2nc3n(c2n(C)c1=O)C(=O)C(C(=O)O)N=N3 (stereo not drawn) | > 200 | > 200 µM |  |
| COC(=O)c1cc(C(=CCCN=[N+]=[N-])c2cc(Br)c(OC)c(C(=O)OC)c2)cc(Br)c1OC | 3.24 | 93.3 µM |  |
| C/C=C(\C(=O)OC)C1CC2OC(=O)C1(C=O)C13CCNC21N(C)c1ccccc13 (stereo not drawn) | > 126 | 117 µM |  |
| O=S(=O)(O)C(O)/C=C/c1ccccc1 (stereo not drawn) |  |  | inactive |
| c1ccc(-c2nc3sc(-c4ccccn4)nc3s2)nc1 |  |  | inactive |
| OC1=C(O)c2ccccc21 | > 1860 | > 1860 µM |  |
| COc1ccc2c(c1OC)C(=O)c1cc(C(C)O)oc1C2=O (stereo not drawn) |  |  | inactive |
| Cc1cn(COCC[Se]c2ccccc2)c(=O)[nH]c1=O | 186 | > 200 µM |  |
| COc1ccc(C2S/C(=C\c3ccc(OC)cc3OC)C(=O)N2NC(=O)Cc2ccccc2)cc1 (stereo not drawn) | > 52.5 | > 52.5 µM |  |
| CC(C)(C)OC(=O)N(CCCCN(CCCNC(=O)C(F)(F)F)C(=O)OC(C)(C)C)CCCNC(=O)C(F)(F)F |  |  | inactive |
| COC(=O)C(C(=O)C(=O)NC1=C(Cl)C(=O)c2ccccc2C1=O)c1csc(-n2nc(-c3ccccc3)cc2-c2ccccc2)n1 (stereo not drawn) | > 11.2 | > 11.2 µM |  |
| O=c1c2ccc(Cl)cc2oc2c(CNc3ccc(S(=O)(=O)Nc4nccs4)cc3)cccc12 | > 151 | > 151 µM |  |
| CCOP(=O)(C/C(=N/NC(C)(C)C)C(=O)Nc1nc2ccc(C)cc2s1)OCC | > 58.9 | > 58.9 µM |  |
| O=C1C=C(N2CCOCC2)C(=O)c2nccnc21 | > 15.5 | 10.2 µM |  |
| O=c1c2cc3c(cc2c2cccc4c2n1CCC4)OCO3 |  |  | inactive |

| SMILES | EC50 [µM] | IC50 | outcome |
| --- | --- | --- | --- |
| C/C(=N/NS(=O)(=O)c1ccc(N)cc1)c1ccccc1O | > 117 | > 117 µM |  |
| FC(F)(F)/C(=N/Nc1ccccc1)SS/C(=N\Nc1ccccc1)C(F)(F)F | > 200 | 38 µM |  |
| CNC(=O)CNC(=O)C(NC(=O)CNC(=O)C1CCCN1C(=O)C(C)NC(=O)C(NC(C)=O)C(C)C)C(C)C (stereo not drawn) (Ac-VAPGVG-NHMe; configuration not given here) | > 200 | > 200 µM |  |
| Cc1c([O-])c([O-])c(-c2c([O-])c([O-])c(C)c3c2OCO3)c2c1OCO2.[C-]#[O+].[C-]#[O+].[C-]#[O+].[C-]#[O+].[C-]#[O+].[C-]#[O+].[C-]#[O+].[C-]#[O+].[Re].[Re] | > 174 | 93.3 µM |  |
| Cn1c(NN)nc2ccccc2c1=O |  |  | inactive |
| CCOC(=O)C(NC(=O)Nc1ccccc1F)(OC)C(F)(F)F (stereo not drawn) | > 200 | > 200 µM |  |
| COc1cc(CNc2cnc3cc(N)ccc3n2)cc(OC)c1OC | > 200 | 6.46 µM |  |
| CC1=NN(c2ccccc2)C(=O)C1N=Nc1ccc(S(=O)(=O)Nc2ncccn2)cc1 (stereo not drawn) | > 200 | 36.3 µM |  |
| O=C(NCCC[P+](c1ccccc1)(c1ccccc1)c1ccccc1)OCc1ccccc1 | > 200 | 1.58 µM |  |
| O=[N+]([O-])c1ccc(O)c(/C=N/NC(=S)N2CCCCC2)c1 | > 200 | 2.95 µM |  |
| CC(C)CC(N)C(=O)NC(Cc1ccc(O)cc1)C(=O)NC(CCC(=O)O)C(=O)N1CCCC1C(=O)NC(CO)C(=O)NC(Cc1ccc(O)cc1)C(=O)NC(C)C(=O)N1CCCC1C(=O)NC(CC(N)=O)C(=O)NC(Cc1cnc[nH]1)C(=O)NC(Cc1ccccc1)C(=O)O (stereo not drawn) (H-LYEPSYAPNHF-OH; configuration not given here) |  |  | inactive |
| COc1ccc2c(c1)CC1c3c(ccc(OC)c3O)CC2N1C (stereo not drawn) | > 43.7 | 20.4 µM |  |
| COc1ccc(/C=N/Nc2ccc(S(=O)(=O)O)cc2)cc1 | > 759 | 331 µM |  |
| CCOC(CC(=O)NCCNC(C)=O)OCC |  |  | inactive |
| O=C1OC(=O)c2cnccc21 |  |  | inactive |
| CC1=NNC(=O)C1C1CC(c2c[nH]c3ccccc23)=NNC1=NCc1ccccc1 (stereo not drawn) | 4.68 | 50.1 µM |  |
| CN1C(Cl)=NS(=O)(=O)c2ccccc21 | > 200 | > 200 µM |  |
| OCC1OC2NC(=S)OC2C1O (stereo not drawn) | > 200 | > 200 µM |  |
| NC(N)=NS(=O)(=O)c1ccc(NC(=O)c2cccc3c(Nc4ccc(S(=O)(=O)N=C(N)N)cc4)c4ccc(Cl)cc4nc23)cc1 | > 53.7 | > 53.7 µM |  |
| CSc1c(C(=O)Nc2ccc(Cl)cc2)c(N)[nH]c(=O)c1C#N | > 200 | 1.2 µM |  |
| NC(=Nc1ccc(O)cc1)S(=O)O | > 200 | 120 µM |  |

| SMILES | EC50 [µM] | IC50 | outcome |
| --- | --- | --- | --- |
| CN(C)c1nc(N)nc(Nc2ccc(Br)cc2)c1N=O | > 200 | 37.2 µM |  |
| Cc1c(C(=O)C/C(=N/NC(=O)CC#N)C(N)=O)[n+](=O)c2ccccc2n1[O-] | > 26.9 | > 26.9 µM |  |
| CC1OC(O[C@H]2C3C=CO[C@@H](OC4OC(CO)C(O)C(O)C4O)C3[C@@]3(COC(=O)/C=C/c4ccccc4)O[C@@H]23)C(O)C(O)C1O (stereo partly drawn) | > 200 | > 200 µM |  |
| COc1cc(Nc2cnc3cc(N)ccc3n2)cc(OC)c1OC | > 200 | > 200 µM |  |
| CCN1C(=O)N(C)C(O)c2c1nc1ccccn1c2=O (stereo not drawn) | > 182 | 11.5 µM |  |
| NC(=O)CCC(NC(=O)C(F)(F)F)C(=O)O (stereo not drawn) |  |  | inactive |
| Cc1nc(C)c(N2CCN(C(=O)NC(CCC(=O)O)C(=O)O)CC2)c(=O)[nH]1 (stereo not drawn) | > 200 | > 200 µM |  |
| COc1ccc(/C=c2\sc3nnc(CCC(=O)Nc4cccc(C(F)(F)F)c4)n3c2=O)cc1 | > 7.59 | > 7.59 µM |  |
| COc1cc(/C=C2\Sc3scc(-c4cccc([N+](=O)[O-])c4)[n+]3C2=O)cc(OC)c1OC | > 200 | 9.77 µM |  |
| Cc1cc(C)nc(NC(=O)Nc2cc(Cl)ccc2C)c1 | > 200 | > 200 µM |  |
| O=C(OC(=C(c1ccccc1)c1ccccc1)N1CCCC1=S)C(c1ccccc1)c1ccccc1 | > 200 | > 200 µM |  |
| Cc1ccc(S(=O)(=O)NCCSCCNS(=O)(=O)c2ccc(C)cc2)cc1 | > 575 | > 575 µM |  |
| CC(=O)OCC1OC(n2c3c(c(-c4ccco4)c(C#N)c2=S)CCCC3)C(OC(C)=O)C(OC(C)=O)C1OC(C)=O (stereo not drawn) | > 200 | 155 µM |  |
| O=C(Cn1cc(I)c(C(=O)NCC(O)CO)n1)NCC(O)CO (stereo not drawn) | > 562 | > 562 µM |  |
| O=C1c2c(O)ccc(O)c2C(=O)c2c(NCCNCCO)ccc(NCCNCCO)c21 | > 0.708 | 0.00186 µM and 0.00251 µM |  |
| CC(c1ccccc1)/[N+]([O-])=C/c1ccccc1 (stereo not drawn) | > 1120 | > 1120 µM |  |
| COC1(OC)C2(Cl)C(Cl)=C(Cl)C1(Cl)C1C(=O)C=CC(=O)C12 (stereo not drawn) | > 60.3 | 25.1 µM |  |
| O=c1n(-c2ccccc2)c(=O)n2n1C1C=CC2CCCCCC1 | > 200 | > 200 µM |  |
| O=C1c2cc3c(cc2CC12Cc1ccccc1C2)CCC3 | > 200 | 28.2 µM |  |
| Cn1c(=N)c(C#N)c2n(c1=S)CCCCCCC2 | > 200 | 97.7 µM |  |
| Nc1ccc(Cl)cc1C(=O)N1CCN(c2ccc([N+](=O)[O-])cn2)CC1 | > 132 | 27.5 µM |  |

| SMILES | EC50 [µM] | IC50 | outcome |
| --- | --- | --- | --- |
| NC(=O)c1ccc[c]([Sb](=[O])([OH])[OH])c1 | 10.5 | 398 µM |  |
| CN/N=C(\C(=O)Nc1ccc(C)c(C)c1)C(C(=O)OC)c1nc2ccc([N+](=O)[O-])cc2[nH]c1=O (stereo not drawn) | > 77.6 | > 77.6 µM |  |
| CC(=O)OC1C=C2c3cc4c(c(O)c3C(=O)NC2[C@H](OC(C)=O)[C@@H]1OC(C)=O)OCO4 (stereo partly drawn) |  |  | inactive |
| C[C@@H](c1ccccc1)n1c(N)c(-c2ccccn2)c2ccc([N+](=O)[O-])cc2c1=O | > 200 | 24 µM |  |
| O=C(O)[C@@H]1CSC(c2ccccc2Cl)N1 (stereo partly drawn) | > 200 | 141 µM |  |
| CC1(C)C=C(/C=N/Nc2ccc(Br)cc2)C(C#N)=C(O)C1(C#N)C#N | > 200 | 28.8 µM |  |
| CCN(CC)c1ccc2c(c1)Oc1cc(N(CC)CC)ccc1C21c2ccccc2C(=O)N1c1ccccc1 | > 200 | > 200 µM |  |
| CC(=O)Oc1ccc2cc(-c3ccccc3OC(C)=O)c(=O)oc2c1 | > 200 | 74.1 µM |  |
| CC1CCC2C1(C)CCC1C2(C)CCC2(C)C3CC(C)(C)CCC3(C)CCC12C (stereo not drawn) | 93.3 | > 100 µM |  |
| OC1COc2c3ccccc3nn2C1 (stereo not drawn) | > 1320 | 871 µM |  |
| CCOC(=O)c1cnc2n(c1=O)[C@H]1CCCC[C@@H]1N2 | > 200 | > 200 µM |  |
| Cn1c(-c2ccccc2)c(CCNC(=O)C2CCC2)c2ccccc21 | > 200 | 31.6 µM |  |
| CCC1C(C(=O)Nc2ccccc2C)=C(C)NC(C)=C1c1ccccc1C (stereo not drawn) | > 186 | > 186 µM |  |
| CN(C)c1ccc(/C=c2\sc3nnc(-c4cccnc4)n3c2=O)cc1 | > 20.9 | > 20.9 µM |  |
| O=C1OC(=O)C2C1C1(c3ccccc3)OC2(c2ccccc2)c2c(Br)c(Br)c(Br)c(Br)c21 (stereo not drawn) |  |  | inactive |
| CCN(CC)CC(=O)N1CCc2c([nH]c3ccccc23)C1c1cccnc1 (stereo not drawn) | > 138 | > 138 µM |  |
| CN(C)CCn1c(=O)oc2cc(C(=O)CN3CCOCC3)ccc21 | > 200 | 102 µM |  |
| C/C(=N\N=C(/C)C1CC(CC(=O)O)C1(C)C)C1CC(CC(=O)O)C1(C)C (stereo not drawn) | > 186 | > 186 µM |  |
| CSC1=C(c2ccc(Cl)cc2)SC(N2CCCCC2)N1c1ccc([N+](=O)[O-])cc1 (stereo not drawn) | > 200 | 97.7 µM |  |
| Clc1cc2c(c3ncccc13)OCN(CCc1ccccc1)C2 | > 200 | 0.955 µM |  |
